Source: patent publication EP4772510A2, “BENZAZEPINONE COMPOUND AND USE THEREOF” (HANGZHOU BIO-SINCERITY PHARMA-TECHCO., LTD., priority 2023, dated 2025)

Tested on: U937 cells
Assay: Inhibition of TNF-α-induced necroptosis of U937 cells (CCK-8 assay)
Format: cell-based, human
Settings: Homo sapiens, U-937, TNF-α 20 ng/mL + BV6 2 µM + Z-VAD-FMK 20 µM, 18 h
Summary of the method: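 U937 cells (3.6 × 10^4/well) rested 6 h, then exposed to TNF-α 20 ng/mL, BV6 2 µM and Z-VAD-FMK 20 µM plus compound (8-point 3-fold series, 1000–0.46 nM, duplicate) for 18 h. Viability by CCK-8, absorbance at 450 nm after 2-4 h at 37 °C; EC50 calculated.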

Question: Which EC50 does the source give for `CN1C(=O)[C@@H](NC(=O)c2nnc(Cc3ccccc3)[nH]2)COc2ccccc21` [GSK2982772, (S)-5-benzyl-N-(5-methyl-4-oxo-2,3,4,5-tetrahydrobenzo[b][1,4]oxazepin-3-yl)-4H-1,2,4-triazole-3-carboxamide, reference compound] here?
Answer: 10 to 100 nM

Question: How did the EC50 turn out when `Cn1cc(C#Cc2cc3c4c(c2)CCN4C(=O)C(NC(=O)c2ncn(Cc4c(F)cccc4F)n2)CC3)cn1` (stereo not drawn) [III-1, 1-(2,6-difluorobenzyl)-N-(9-((1-methyl-1H-pyrazol-4-yl)ethynyl)-4-oxo-1,2,3,4,6,7-hexahydroazepino[3,2,1-hi]indol-3-yl)-1H-1,2,4-triazole-3-carboxamide] was run?
Answer: < 5 nM

Question: `Cn1cc(C#Cc2cc3c4c(c2)CCN4C(=O)C(NC(=O)c2ncn(Cc4cc(F)ccc4F)n2)CC3)cn1` (stereo not drawn) [III-10, 1-(2,5-difluorobenzyl)-N-(9-((1-methyl-1H-pyrazol-4-yl)ethynyl)-4-oxo-1,2,3,4,6,7-hexahydroazepino[3,2,1-hi]indol-3-yl)-1H-1,2,4-triazole-3-carboxamide] was tested. Which EC50 did it give?
Answer: < 5 nM

Question: How did the EC50 turn out when `Cn1cc(C#Cc2cc3c4c(c2)CCN4C(=O)C(NC(=O)c2ncn(Cc4ccc(F)c(F)c4)n2)CC3)cn1` (stereo not drawn) [III-12, 1-(3,4-difluorobenzyl)-N-(9-((1-methyl-1H-pyrazol-4-yl)ethynyl)-4-oxo-1,2,3,4,6,7-hexahydroazepino[3,2,1-hi]indol-3-yl)-1H-1,2,4-triazole-3-carboxamide] was run?
Answer: 5 to 10 nM

Question: Which EC50 does the source give for `O=C(NC1CCc2cc(C#Cc3cnn(C(F)F)c3)cc3c2N(CC3)C1=O)c1ncn(Cc2cc(F)ccc2F)n1` (stereo not drawn) [III-19, 1-(2,5-difluorobenzyl)-N-(9-((1-(difluoromethyl)-1H-pyrazol-4-yl)ethynyl)-4-oxo-1,2,3,4,6,7-hexahydroazepino[3,2,1-hi]indol-3-yl)-1H-1,2,4-triazole-3-carboxamide] here?
Answer: 5 to 10 nM

Question: For `O=C(NC1CCc2cc(C#Cc3cnn(C(F)F)c3)cc3c2N(CC3)C1=O)c1ncn(Cc2ccccc2F)n1` (stereo not drawn) [III-21, N-(9-((1-(difluoromethyl)-1H-pyrazol-4-yl)ethynyl)-4-oxo-1,2,3,4,6,7-hexahydroazepino[3,2,1-hi]indol-3-yl)-1-(2-fluorobenzyl)-1H-1,2,4-triazole-3-carboxamide], which EC50 is on record?
Answer: < 5 nM

Question: `C#Cc1cc2c3c(c1)CCN3C(=O)C(NC(=O)c1ncn(Cc3c(F)cccc3F)n1)CC2` (stereo not drawn) [III-26, 1-(2,6-difluorobenzyl)-N-(9-ethynyl-4-oxo-1,2,3,4,6,7-hexahydroazepino[3,2,1-hi]indol-3-yl)-1H-1,2,4-triazole-3-carboxamide] was tested. Which EC50 did it give?
Answer: < 5 nM

Same assay, conditions: TNF-α 20 ng/mL + BV6 2 µM + Z-VAD-FMK 20 µM, 18 h

Question: Which EC50 does the source give for `O=C(NC1CCc2cc(C#Cc3cnn(C(F)F)c3)cc3c2N(CC3)C1=O)c1ncn(Cc2c(F)cccc2F)n1` (stereo not drawn) [III-17, 1-(2,6-difluorobenzyl)-N-(9-((1-(difluoromethyl)-1H-pyrazol-4-yl)ethynyl)-4-oxo-1,2,3,4,6,7-hexahydroazepino[3,2,1-hi]indol-3-yl)-1H-1,2,4-triazole-3-carboxamide] here?
Answer: < 5 nM

Question: Which EC50 does the source give for “N-(9-((1-(difluoromethyl)-1H-pyrazol-4-yl)ethynyl)-4-oxo-1,2,3,4,6,7-hexahydroazepino[3,2,1-hi]indol-3-yl)-1-(4-methylbenzyl)-1H-1,2,4-triazole-3-carboxamide [III-25]” here?
Answer: 10 to 100 nM
